Experimental data taken from patent publication US20250320206A1, “STAT6 DEGRADERS” (Gilead Sciences, Inc., priority 2024, published 2025).

How the values were obtained:
[1] = test system: Eotaxin-3 release in human whole blood stimulated with IL-4; assay: Human Whole Blood Eotaxin-3 Assay (IL-4 stimulated eotaxin-3 release); assay type: cell-based; conditions: IL-4 stimulation, 48 h, values given for compounds with >80% Emax, geometric mean
Summary of the method: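 Lithium-heparin human whole blood preincubated 2 h at 37° C with 4-fold serially diluted compounds (0.5% DMSO), then stimulated with recombinant human IL-4 ([…]) for 48 h. Eotaxin-3 (CCL26) in supernatant quantified by MSD immunoassay.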

STAT6 = molecular target: T1, STAT6 (Homo sapiens, UniProt P42226); assay: Stat6 Degrader Assay (HiBiT based, HeLa LgBiT clone 4.14); assay type: cell-based; conditions: HeLa LgBiT clone 4.14 HiBiT-STAT6, 4-24 h incubation; values given for compounds with >80% Emax; geometric mean; read-out: STAT6 degradation DC50
T1 construct: These cells express endogenous STAT6; host or cells: HeLa LgBiT clone 4.14
T1 sequence (P42226 1-847): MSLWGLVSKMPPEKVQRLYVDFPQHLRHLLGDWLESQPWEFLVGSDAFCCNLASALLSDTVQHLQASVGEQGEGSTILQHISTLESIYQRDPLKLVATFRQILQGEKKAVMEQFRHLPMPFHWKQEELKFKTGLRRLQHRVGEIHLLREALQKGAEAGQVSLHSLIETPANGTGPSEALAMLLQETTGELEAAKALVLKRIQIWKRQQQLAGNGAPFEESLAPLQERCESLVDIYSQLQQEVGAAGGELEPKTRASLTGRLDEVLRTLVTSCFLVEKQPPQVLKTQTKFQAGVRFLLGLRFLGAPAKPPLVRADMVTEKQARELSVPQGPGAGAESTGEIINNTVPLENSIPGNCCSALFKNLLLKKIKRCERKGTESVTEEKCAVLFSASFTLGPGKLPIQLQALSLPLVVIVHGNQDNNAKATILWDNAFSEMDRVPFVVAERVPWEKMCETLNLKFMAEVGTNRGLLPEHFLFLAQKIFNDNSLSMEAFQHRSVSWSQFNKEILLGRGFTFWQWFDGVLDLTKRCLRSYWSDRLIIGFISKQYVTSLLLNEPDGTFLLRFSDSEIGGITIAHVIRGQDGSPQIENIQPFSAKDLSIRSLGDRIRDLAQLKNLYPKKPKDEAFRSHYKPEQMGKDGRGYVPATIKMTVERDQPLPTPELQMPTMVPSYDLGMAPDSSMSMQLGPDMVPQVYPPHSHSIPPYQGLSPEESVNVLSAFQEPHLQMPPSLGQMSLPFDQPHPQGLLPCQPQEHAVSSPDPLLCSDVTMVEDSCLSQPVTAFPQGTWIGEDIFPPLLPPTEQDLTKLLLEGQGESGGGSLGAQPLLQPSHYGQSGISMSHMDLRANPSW
Summary of the method: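 HeLa LgBiT clone 4.14 cells with CRISPR HiBiT-tagged endogenous STAT6, 5000 cells/well, compound dosed then incubated 4-24 h at 37° C, 5% CO2. Nano-Glo substrate added, 0.5 h, luminescence read as non-degraded STAT6. Terfenadine 50 μM (cell kill) defines 100% degradation.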

| EC50 [1] [nM] | DC50 (STAT6) [nM] | SMILES |
| --- | --- | --- |
| 5.5 | 9.6 | CNc1ccn(-c2ccnc3c2cc([C@H](C)N2CC=C(c4c(C)cc(C(=O)N(C)C5CCN(C6CCN(Cc7ccc8c(c7)n(C)c(=O)n8C7CCC(=O)NC7=O)CC6)CC5)cc4F)CC2)n3C)c(=O)c1 (stereo partly drawn) [Example 3u35, N-(1′-((1-(2,6-dioxopiperidin-3-yl)-3-methyl-2-oxo-2,3-dihydro-1H-benzo[d]imidazol-5-yl)methyl)-[1,4′-bipiperidin]-4-yl)-3-fluoro-N,5-dimethyl-4-(1-((S)-1-(1-methyl-4-(4-(methylamino)-2-oxopyridin-1 (2H)-yl)-1H-pyrrolo[2,3-b]pyridin-2-yl)ethyl)-1,2,3,6-tetrahydropyridin-4-yl)benzamide] |
| 1.3 | 3.2 | Cc1cc(C(=O)N2CCC(CN3CCN(Cc4cc5c(cc4F)n([C@@H]4CCC(=O)NC4=O)c(=O)n5C)CC3)CC2)cc(F)c1C1=CCN([C@@H](C)c2cc3c(-n4ccc5c(c4=O)CCN5)ccnc3n2C)CC1 (single isomer, unassigned) [Example 3u76] |
| 2.2 | 1.2 | CNc1cc(=O)n(-c2ccnc3c2cc([C@H](C)N2CC=C(c4c(C)cc(C(=O)N5CCC(CN6CCN(Cc7ccc8c(c7)n(C7CC7)c(=O)n8C7CCC(=O)NC7=O)C[C@@H]6C)CC5)cc4F)CC2)n3C)cc1F (stereo partly drawn) [Example 3u118, 3-(3-cyclopropyl-5-(((S)-4-((1-(3-fluoro-4-(1-((S)-1-(4-(5-fluoro-4-(methylamino)-2-oxopyridin-1 (2H)-yl)-1-methyl-1H-pyrrolo[2,3-b]pyridin-2-yl)ethyl)-1,2,3,6-tetrahydropyridin-4-yl)-5-methylbenzoyl)piperidin-4-yl)methyl)-3-methylpiperazin-1-yl)methyl)-2-oxo-2,3-dihydro-1H-benzo[d]imidazol-1-yl)piperidine-2,6-dione] |
| 1.3 | 1.1 | CNc1cc(=O)n(-c2ccnc3c2cc([C@H](C)N2CC=C(c4c(C)cc(C(=O)N(C)c5ccc(N6CCC(O)(Cc7ccc8c(c7)C7(CC7)C(=O)N8C7CCC(=O)NC7=O)CC6)nc5)cc4F)CC2)n3C)cc1F (stereo partly drawn) [Example 3u240, N-(6-(4-((1′-(2,6-dioxopiperidin-3-yl)-2′-oxospiro[cyclopropane-1,3′-indolin]-5′-yl)methyl)-4-hydroxypiperidin-1-yl)pyridin-3-yl)-3-fluoro-4-(1-((S)-1-(4-(5-fluoro-4-(methylamino)-2-oxopyridin-1 (2H)-yl)-1-methyl-1H-pyrrolo[2,3-b]pyridin-2-yl)ethyl)-1,2,3,6-tetrahydropyridin-4-yl)-N,5-dimethylbenzamide] |
| 24.3 | 2.9 | CNc1cc(=O)n(-c2ccnc3c2cc(CN2CCC(c4c(F)cc(C(=O)N5CCC(CN6CCN(Cc7ccc8c(c7)n(C)c(=O)n8[C@@H]7CCC(=O)NC7=O)CC6)CC5)cc4F)CC2)n3C)cc1F (single isomer, unassigned) [Example 3u28] |
| 10.1 | 10.2 | CNc1ccn(-c2ccnc3c2cc(CN2CCC(c4c(F)cc(C(=O)N5CCC(CN6CCN(Cc7cc8c(cc7F)N([C@@H]7CCC(=O)NC7=O)C(=O)C87CC7)CC6)CC5)cc4F)CC2)n3C)c(=O)c1 (single isomer, unassigned) [Example 3u44] |
| 2.2 | 1.6 | CNc1ccn(-c2ccnc3c2cc([C@H](C)N2CC=C(c4c(C)cc(C(=O)N5CCC(CN6CCN(Cc7cc8c(cc7F)N([C@@H]7CCC(=O)NC7=O)C(=O)C87CC7)C[C@@H]6C)CC5)cc4F)CC2)n3C)c(=O)c1 (single isomer, unassigned) [Example 3u195] |
| 1.2 | 0.6 | CNc1cc(=O)n(-c2ccnc3c2cc([C@H](C)N2CC=C(c4c(C)cc(C(=O)N5CCC(CN6CCN(Cc7ccc8c(c7)n(C)c(=O)n8[C@H]7CCC(=O)NC7=O)CC6)CC5)cc4F)CC2)n3C)cc1F (single isomer, unassigned) [Example 3u14] |
| 7.7 | 4.7 | CNc1ccn(-c2ccnc3c2cc([C@H](C)N2CCC(c4ccc(C(=O)N5CCC(CN6CCN(Cc7ccc8c(c7)C(C)(C)C(=O)N8[C@@H]7CCC(=O)NC7=O)C[C@@H]6C)CC5)cc4)CC2)n3C)c(=O)c1 (single isomer, unassigned) [Example 3u189] |
| 15.4 | 3.5 | Cc1cc(C(=O)N2CCC(CN3CCN(Cc4ccc5c(c4)C(C)(C)C(=O)N5[C@@H]4CCC(=O)NC4=O)C[C@@H]3C)CC2)cc(F)c1C1=CCN([C@@H](C)c2cc3c(-n4cc(F)c(N)cc4=O)ccnc3n2C)CC1 (single isomer, unassigned) [Example 3u171] |
| 0.2 | 0.4 | CN(C(=O)c1cc(F)c(C2CCN(Cc3cc4c(-n5cc(F)c6c(c5=O)CCN6)ccnc4n3C)CC2)c(F)c1)c1ccc(C2CCN(Cc3ccc4c(c3)n(C)c(=O)n4C3CCC(=O)NC3=O)CC2)cc1 (centres unmarked) [Example 3u126, N-(4-(1-((1-(2,6-dioxopiperidin-3-yl)-3-methyl-2-oxo-2,3-dihydro-1H-benzo[d]imidazol-5-yl)methyl)piperidin-4-yl)phenyl)-3,5-difluoro-4-(1-((4-(7-fluoro-4-oxo-1,2,3,4-tetrahydro-5H-pyrrolo[3,2-c]pyridin-5-yl)-1-methyl-1H-pyrrolo[2,3-b]pyridin-2-yl)methyl)piperidin-4-yl)-N-methylbenzamide] |
| 10.8 | 6.5 | CNc1ccn(-c2ccnc3c2cc([C@H](C)N2CC=C(c4c(C)cc(C(=O)N5CCC(CN6CCN(c7ccc8c(c7)C(C)(C)C(=O)N8C7CCC(=O)NC7=O)CC6)CC5)cc4F)CC2)n3C)c(=O)c1 (stereo partly drawn) [Example 3u304, 3-(5-(4-((1-(3-fluoro-5-methyl-4-(1-((S)-1-(1-methyl-4-(4-(methylamino)-2-oxopyridin-1 (2H)-yl)-1H-pyrrolo[2,3-b]pyridin-2-yl)ethyl)-1,2,3,6-tetrahydropyridin-4-yl)benzoyl)piperidin-4-yl)methyl)piperazin-1-yl)-3,3-dimethyl-2-oxoindolin-1-yl)piperidine-2,6-dione] |
| 0.5 | 0.5 | CNc1ccn(-c2ccnc3c2cc([C@H](C)N2CC=C(c4c(F)cc(C(=O)N5CCC(CN6CCN(Cc7ccc8c(c7)n(C7CC7)c(=O)n8[C@H]7CCC(=O)NC7=O)C[C@@H]6C)CC5)cc4F)CC2)n3C)c(=O)c1 (single isomer, unassigned) [Example 3u211] |
| 0.3 | 0.1 | CNc1ccn(-c2ccnc3c2cc([C@H](C)N2CC=C(c4c(C)cc(C(=O)N(C)c5ccc(C6CCN(Cc7ccc8c(c7)n(C)c(=O)n8C7CCC(=O)NC7=O)CC6)cc5)cc4F)CC2)n3C)c(=O)c1 (stereo partly drawn) [Example 3u225, N-(4-(1-((1-(2,6-dioxopiperidin-3-yl)-3-methyl-2-oxo-2,3-dihydro-1H-benzo[d]-imidazol-5-yl)methyl)piperidin-4-yl)phenyl)-3-fluoro-N,5-dimethyl-4-(1-((S)-1-(1-methyl-4-(4-(methyl-amino)-2-oxopyridin-1 (2H)-yl)-1H-pyrrolo[2,3-b]pyridin-2-yl)ethyl)-1,2,3,6-tetrahydropyridin-4-yl)-benzamide] |
| 6.3 | 6 | CNc1ccn(-c2ccnc3c2cc(CN2CCC(c4c(F)cc(C(=O)N5CCC(CN6CCN(Cc7ccc8c(c7)C(C)(C)C(=O)N8[C@H]7CCC(=O)NC7=O)CC6)CC5)cc4F)CC2)n3C)c(=O)c1 (single isomer, unassigned) [Example 3u17] |
| 1.5 | 3.5 | CNc1ccn(-c2ccnc3c2cc(CN2CCC(c4c(F)cc(C(=O)N5CCC(CN6CCN(Cc7ccc8c(c7)n(C7CC7)c(=O)n8C7CCC(=O)NC7=O)C[C@@H]6C)CC5)cc4F)CC2)n3C)c(=O)c1 (stereo partly drawn) [Example 3u216, 3-(3-cyclopropyl-5-(((S)-4-((1-(3,5-difluoro-4-(1-((1-methyl-4-(4-(methylamino)-2-oxopyridin-1 (2H)-yl)-1H-pyrrolo[2,3-b]pyridin-2-yl)methyl)piperidin-4-yl)benzoyl)piperidin-4-yl)-methyl)-3-methylpiperazin-1-yl)methyl)-2-oxo-2,3-dihydro-1H-benzo[d]imidazol-1-yl)piperidine-2,6-dione] |
